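Interpolation was linear, between the two tested concentrations surrounding the appropriate level; five concentrations were tested over 48 hours in 96-well plates. GI50 marks 50% less growth. TGI denotes the concentration required for complete inhibition of growth.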
Experiments:
Test in all cases: NCI anticancer screen, dose series, 48 h
DU-145 prostate = tested on: DU-145 prostate
RXF 393 renal = tested on: RXF 393 renal
KM12 colon = tested on: KM12 colon
SK-MEL-2 melanoma = tested on: SK-MEL-2 melanoma
NCI-H23 lung = tested on: NCI-H23 lung
MCF7 breast = tested on: MCF7 breast
SW-620 colon = tested on: SW-620 colon
SK-MEL-28 melanoma = tested on: SK-MEL-28 melanoma
RPMI-8226 leukemia = tested on: RPMI-8226 leukemia
NCI/ADR-RES ovarian = tested on: NCI/ADR-RES ovarian

Structure (SMILES) | TGI (DU-145 prostate) [µM] | TGI (RXF 393 renal) [µM] | TGI (KM12 colon) [µM] | TGI (SK-MEL-2 melanoma) [µM] | TGI (NCI-H23 lung) [µM] | TGI (MCF7 breast) [µM] | TGI (SW-620 colon) [µM] | TGI (SK-MEL-28 melanoma) [µM] | TGI (RPMI-8226 leukemia) [µM] | TGI (NCI/ADR-RES ovarian) [µM] | GI50 (DU-145 prostate) [µM] | GI50 (RXF 393 renal) [µM] | GI50 (KM12 colon) [µM] | GI50 (SK-MEL-2 melanoma) [µM] | GI50 (NCI-H23 lung) [µM] | GI50 (MCF7 breast) [µM] | GI50 (SW-620 colon) [µM] | GI50 (SK-MEL-28 melanoma) [µM] | GI50 (NCI/ADR-RES ovarian) [µM] | GI50 (RPMI-8226 leukemia) [µM]
Cc1ccc(C)c2c(N=Nc3ccccc3[N+](=O)[O-])c(O)[nH]c12 | > 100 | > 100 | > 100 | > 100 | > 100 | > 100 | > 100 | > 100 | > 100 | – | – | – | – | – | – | – | – | – | – | –
NCCN1C(=O)c2ccccc2C1(O)c1ccc(Cl)cc1 (configuration not stated) | > 100 | 55.8 | 30.5 | 30.8 | > 100 | 32.6 | 36.6 | 33.2 | 39.7 | > 100 | – | – | – | – | – | – | – | – | – | –
COc1cc(NC(C)CCCN)c2ncccc2c1Sc1ccc(Cl)cc1 (configuration not stated) | 3.32 | 3.07 | 3.27 | 3.4 | 3.3 | 3.19 | 3.08 | 3.28 | – | 3.42 | 1.85 | 1.7 | 1.77 | 1.85 | 1.7 | 1.76 | 1.61 | 1.83 | 1.77 | –
Cn1c2ccccc2c2nnc(NNCc3ccccn3)nc21 | 11 | 3.36 | 14.2 | 33 | 6.15 | 14.5 | 16.5 | 11.2 | 18.4 | 3.22 | 0.312 | 0.407 | 0.478 | 5.17 | 0.421 | 0.372 | 0.613 | 0.675 | 0.276 | 0.589
CC(=O)c1cccc(NC(=O)c2ccc(NC3=C(Cl)C(=O)N(Cc4ccccc4)C3=O)cc2)c1 | 34.2 | > 100 | 43 | 11.5 | 43.7 | > 100 | > 100 | > 100 | 15.1 | > 100 | 13.4 | 24 | 20 | 2.38 | 23 | 9.34 | 5.87 | 25.6 | 30.8 | 3.31
COc1ccc(C(=O)OC2C(OC3C(O)COC(O[C@H]4C[C@H]5[C@@H]6CC=C7C[C@@H](O)CC[C@]7(C)[C@H]6CC[C@]5(C)[C@H]4[C@H](C)C(=O)CCC(C)C)C3OC(C)=O)OCC(O)C2O)cc1 (some centres not stated) | 24.3 | < 0.003 | 4.48 | 0.0101 | 3.37 | 0.532 | 0.304 | < 0.003 | < 0.003 | 30 | < 0.003 | < 0.003 | 0.00399 | < 0.003 | 0.0144 | < 0.003 | < 0.003 | < 0.003 | 7.49 | < 0.003
Cc1cc2c(=O)cc(-c3ccc(F)cc3)oc2c(C(=O)O)c1C | – | > 100 | > 100 | > 100 | > 100 | – | > 100 | > 100 | > 100 | – | – | – | – | – | – | – | – | – | – | –
CCN(CC)c1ccc(/C=C/C=C(/C#N)C(N)=S)cc1 | > 100 | – | > 100 | > 100 | > 100 | > 100 | > 100 | > 100 | 7.88 | > 100 | 3.88 | – | 9.6 | 20.9 | 8.45 | 14.5 | 15.4 | 21.2 | 3.85 | 2.14
COc1ccc(/C(=N/O)c2cc(OC)c(OC)c(OC)c2)c(OC)c1N | > 100 | – | > 100 | > 100 | > 100 | > 100 | > 100 | > 100 | > 100 | – | 4.67 | – | 3.27 | > 100 | 7.06 | 3.26 | 4.42 | > 100 | – | 5.35
CC12CC(Sc3ccccc3N1)c1ccccc1O2 (configuration not stated) | – | 30.2 | 28.6 | 25.4 | 29.8 | – | 31.8 | 30.4 | 48 | – | – | – | – | – | – | – | – | – | – | –
O=[N+]([O-])c1ccc(COc2cccc3cccnc23)cc1 | – | > 100 | 96.5 | > 100 | > 100 | – | – | 85 | 39.2 | – | – | – | – | – | – | – | – | – | – | –
Cc1cnc(SCCN2CCN(C)CC2)nc1-c1cc2ccccc2s1 | – | 22.7 | 32.2 | 30.9 | 34.3 | – | 24.7 | 32.7 | – | – | – | – | – | – | – | – | – | – | – | –
COc1ccc(-c2nc(-c3nc4ccc(C(F)(F)F)cc4[nH]3)c3ccccn23)cc1 | > 100 | > 100 | > 100 | > 100 | > 100 | > 100 | > 100 | > 100 | – | > 100 | > 100 | 30.5 | 36.4 | > 100 | > 100 | 26.3 | > 100 | > 100 | 85.3 | –
CCOP(=O)(CC(=O)C1=C(O)C(CCCCNC(=O)OC(C)(C)C)N(Cc2ccccc2)C1=O)OCC (configuration not stated) | – | > 100 | > 100 | > 100 | > 100 | – | – | > 100 | > 100 | – | – | – | – | – | – | – | – | – | – | –
N#C/C(=C\c1cccc2cnccc12)N1N=NC2C=CC=CC21 (configuration not stated) | > 100 | 6.97 | 32 | > 100 | > 100 | > 100 | > 100 | > 100 | – | > 100 | 3.55 | 2.35 | 2.96 | 4.49 | 3.27 | 0.557 | 3.35 | 4.1 | 3.53 | –
CN1C(=O)C(=CN(C)c2ccccc2)C(=O)N(C)C1=O | – | > 100 | > 100 | > 100 | – | – | > 100 | > 100 | > 100 | – | – | – | – | – | – | – | – | – | – | –
O=C1c2c(c3c4ccccc4[nH]c3c3[nH]c4ccccc4c23)C(=O)N1Cc1ccccc1 | – | 4.12 | 9.47 | 10.6 | 6.16 | – | 10.9 | 11.7 | 6.74 | – | – | – | – | – | – | – | – | – | – | –

— PubChem BioAssay (NCI)
